Assay results from ChEMBL document CHEMBL4321822 (J Med Chem, 2019).
Activity calls are given as the source filed them. No cut-off for these calls is given here.

Columns and labels:
Cholinesterase [1] = target: T1, Cholinesterase (Homo sapiens, UniProt P06276); experiment: Inhibition of human plasma BChE using butyrylthiocholine iodide as substrate preincubated for 20 mins followed by substrate addition and measured after 2.5 mins by DTNB reagent based spectrometric method
[2] = target: Acetylcholinesterase (Homo sapiens) (UniProt P22303); experiment: Inhibition of human erythrocyte AChE at 10 uM using acetylthiocholine iodide as substrate preincubated for 20 mins followed by substrate addition and measured after 2.5 mins by DTNB reagent based spectrometric method relative to control
Acetylcholinesterase (Homo sapiens), sequence (P22303 whole entry): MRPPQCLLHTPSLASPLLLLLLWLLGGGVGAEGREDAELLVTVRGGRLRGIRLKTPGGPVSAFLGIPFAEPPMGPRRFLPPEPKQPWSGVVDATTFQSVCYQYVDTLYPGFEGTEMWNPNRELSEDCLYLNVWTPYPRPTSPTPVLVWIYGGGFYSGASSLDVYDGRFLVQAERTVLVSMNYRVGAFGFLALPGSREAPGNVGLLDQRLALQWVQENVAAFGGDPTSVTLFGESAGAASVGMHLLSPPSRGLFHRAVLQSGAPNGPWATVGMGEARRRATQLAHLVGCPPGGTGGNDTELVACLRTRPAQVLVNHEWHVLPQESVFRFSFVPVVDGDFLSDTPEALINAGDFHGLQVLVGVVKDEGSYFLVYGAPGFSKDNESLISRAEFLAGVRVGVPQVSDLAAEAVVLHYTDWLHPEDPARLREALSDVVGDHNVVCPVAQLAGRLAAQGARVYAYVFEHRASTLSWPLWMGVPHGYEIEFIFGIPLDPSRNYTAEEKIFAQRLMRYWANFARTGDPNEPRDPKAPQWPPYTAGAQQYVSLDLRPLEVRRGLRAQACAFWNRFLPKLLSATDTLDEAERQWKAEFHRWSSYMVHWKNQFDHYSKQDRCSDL

Cholinesterase [3] = target: T1, Cholinesterase; experiment: (§1) Inhibition of human plasma BChE assessed as carbamylation by measuring rate constant for inhibitor-carrier-enzyme complex formation using butyrylthiocholine iodide as substrate preincubated for 5 to 40 mins followed by substrate addition and measured after 2.5 mins by DTNB reagent based UV-spectrometric method
Cholinesterase [4] = target: T1, Cholinesterase; experiment: as §1, with “inhibitor-enzyme” for “inhibitor-carrier-enzyme”
Cholinesterase [5] = target: T1, Cholinesterase; experiment: (§2) Inhibition of human plasma BChE assessed as decarbamylation by measuring rate constant for enzyme recovery at IC>85 using butyrylthiocholine iodide as substrate incubated for 1 hr prior to compound dilution further incubated for 1 to 40 mins and subsequent substrate addition and measured after 2.5 mins by DTNB reagent based UV-spectrometric method
Cholinesterase [6] = target: T1, Cholinesterase; experiment: as §2, with “half life” for “decarbamylation by measuring rate constant”, “enzyme-inhibitor […]” for “enzyme recovery”
[7] = target: Cholinesterases; ACHE & BCHE (Homo sapiens) (UniProt P06276+P22303); experiment: Selectivity index, ratio of IC50 for inhibition of human erythrocyte AChE to IC50 for inhibition of human plasma BChE; format: protein assay
Cholinesterases; ACHE & BCHE (Homo sapiens), sequence (P06276 whole entry, looked up): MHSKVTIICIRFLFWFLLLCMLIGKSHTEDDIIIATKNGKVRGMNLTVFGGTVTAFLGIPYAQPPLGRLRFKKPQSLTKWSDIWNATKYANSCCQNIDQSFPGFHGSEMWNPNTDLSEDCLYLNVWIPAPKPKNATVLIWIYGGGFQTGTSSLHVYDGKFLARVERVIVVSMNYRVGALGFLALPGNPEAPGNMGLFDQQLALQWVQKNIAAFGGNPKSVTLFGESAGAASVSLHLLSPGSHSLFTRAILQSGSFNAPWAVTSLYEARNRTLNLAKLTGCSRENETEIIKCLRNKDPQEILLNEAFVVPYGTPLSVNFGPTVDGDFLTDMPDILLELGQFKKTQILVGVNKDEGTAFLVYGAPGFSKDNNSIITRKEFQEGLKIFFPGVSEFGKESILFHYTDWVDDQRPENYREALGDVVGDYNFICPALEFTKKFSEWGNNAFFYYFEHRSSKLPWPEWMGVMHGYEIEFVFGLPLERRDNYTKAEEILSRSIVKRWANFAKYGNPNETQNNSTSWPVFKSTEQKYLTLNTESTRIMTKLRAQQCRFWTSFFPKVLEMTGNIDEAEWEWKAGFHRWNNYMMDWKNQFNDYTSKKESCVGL
Cholinesterases; ACHE & BCHE (Homo sapiens), sequence (P22303 whole entry, looked up): as the sequence (P22303 whole entry) above

HT-22 [8] = experiment: Neurotoxicity in mouse HT22 cells assessed as reduction in cell viability up to 25 uM measured after 24 hrs by MTT assay; format: toxicity, cell-based; conditions: ht-22, 24 h
HT-22 [9] = experiment: Neuroprotection against glutamate-induced cell death in mouse HT22 cells assessed as increase in cell viability measured after 24 hrs by MTT assay; format: functional, cell-based
[10] = Toxicity in oligomerized-amyloid beta (25 to 35)-induced Swiss mouse model of Alzheimer's disease assessed as effect on body weight gain at 0.3 to 3 mg/kg, ip administered once daily for 7 days measured daily during compound dosing; format: organism-based; conditions: in vivo, 168 h
Mus musculus [11] = experiment: Neuroprotection against oligomerized-amyloid beta (25 to 35)-induced Swiss mouse model of Alzheimer's disease assessed as improvement in spontaneous alternation at 0.3 mg/kg, ip administered once daily for 7 days measured on day 8 by Y-maze test; format: functional, organism-based
Mus musculus [12] = experiment: Neuroprotection against oligomerized-amyloid beta (25 to 35)-induced Swiss mouse model of Alzheimer's disease assessed as increase in number of arm entries at 0.3 to 3 mg/kg, ip administered once daily for 7 days measured on day 8 by Y-maze test; format: functional, organism-based
Mus musculus [13] = experiment: Neuroprotection against oligomerized-amyloid beta (25 to 35)-induced Swiss mouse model of Alzheimer's disease assessed as increase in retention latency time at 0.3 to 3 mg/kg, ip administered once daily for 7 days measured 48 to 72 hrs post-last dose by step-through passive avoidance test; format: functional, organism-based
Mus musculus [14] = experiment: Effect on latency time during training in Swiss mouse model of Alzheimer's disease assessed as increase in retention latency time at 0.3 to 3 mg/kg, ip administered once daily for 7 days measured 48 hrs post-last dose by step-through passive avoidance test; format: ADME, organism-based; conditions: in vivo
Mus musculus [15] = experiment: Effect on shock sensitivity during training in Swiss mouse model of Alzheimer's disease assessed as increase in retention latency time at 0.3 to 3 mg/kg, ip administered once daily for 7 days measured 48 hrs post-last dose by step-through passive avoidance test; format: ADME, organism-based; conditions: in vivo
Acetylcholinesterase = target: T2, Acetylcholinesterase (Mus musculus, UniProt P21836); experiment: Inhibition of mouse AChE using acetylthiocholine as substrate measured after 300 secs by Ellman's method
T2 sequence (P21836 whole entry): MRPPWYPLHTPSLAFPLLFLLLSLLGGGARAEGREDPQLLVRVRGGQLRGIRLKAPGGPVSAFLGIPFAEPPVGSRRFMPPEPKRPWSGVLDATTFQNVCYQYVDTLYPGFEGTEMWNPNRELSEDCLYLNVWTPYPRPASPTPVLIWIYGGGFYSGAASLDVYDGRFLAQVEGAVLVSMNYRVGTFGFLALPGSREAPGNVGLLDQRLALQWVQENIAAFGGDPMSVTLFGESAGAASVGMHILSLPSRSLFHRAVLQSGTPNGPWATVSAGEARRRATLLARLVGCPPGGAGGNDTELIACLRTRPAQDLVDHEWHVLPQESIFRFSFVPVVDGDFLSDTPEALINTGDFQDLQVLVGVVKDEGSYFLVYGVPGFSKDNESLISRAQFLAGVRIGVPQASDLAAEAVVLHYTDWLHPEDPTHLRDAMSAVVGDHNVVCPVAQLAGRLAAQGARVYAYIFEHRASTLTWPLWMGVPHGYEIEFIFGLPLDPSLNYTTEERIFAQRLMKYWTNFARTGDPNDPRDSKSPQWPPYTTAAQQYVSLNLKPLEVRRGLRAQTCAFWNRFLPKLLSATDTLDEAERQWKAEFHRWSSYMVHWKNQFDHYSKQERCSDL

Mus musculus [16] = experiment: Neuroprotection against oligomerized-amyloid beta (25 to 35)-induced Swiss mouse model of Alzheimer's disease assessed as improvement in spontaneous alternation at 3 mg/kg, ip administered once daily for 7 days measured on day 8 by Y-maze test; format: functional, organism-based
Mus musculus [17] = experiment: Neuroprotection against oligomerized-amyloid beta (25 to 35)-induced Swiss mouse model of Alzheimer's disease assessed as increase in retention latency time at 1 to 3 mg/kg, ip administered once daily for 7 days measured 48 to 72 hrs post-last dose by step-through passive avoidance test; format: functional, organism-based
HT-22 [18] = experiment: Neuroprotection against glutamate-induced cell death in mouse HT22 cells assessed as increase in cell viability at 5 uM measured after 24 hrs by MTT assay; format: functional, cell-based
Mus musculus [19] = experiment: Neuroprotection against oligomerized-amyloid beta (25 to 35)-induced Swiss mouse model of Alzheimer's disease assessed as improvement in spontaneous alternation at 1 to 3 mg/kg, ip administered once daily for 7 days measured on day 8 by Y-maze test; format: functional, organism-based
Mus musculus [20] = experiment: Neuroprotection against oligomerized-amyloid beta (25 to 35)-induced Swiss mouse model of Alzheimer's disease assessed as improvement in spontaneous alternation at 0.3 to 3 mg/kg, ip administered once daily for 7 days measured on day 8 by Y-maze test; format: functional, organism-based
Mus musculus [21] = experiment: Neuroprotection against oligomerized-amyloid beta (25 to 35)-induced Swiss mouse model of Alzheimer's disease assessed as improvement in spontaneous alternation at 1 mg/kg, ip administered once daily for 7 days measured on day 8 by Y-maze test; format: functional, organism-based

T1 sequence (P06276 whole entry): as the sequence (P06276 whole entry, looked up) above

Row | SMILES | IC50 (Cholinesterase [1]) [µM] | inhibition [2] [%] | K (Cholinesterase [3]) [nM] | K (Cholinesterase [4]) [min⁻¹] | K (Cholinesterase [5]) [h⁻¹] | T1/2 (Cholinesterase [6]) [h] | Ratio IC50 [7] | other results
1 | CN1c2ccc(OC(=O)NCCCCCCN3CCNCC3)cc2CN2CCc3ccccc3C21 (centres undefined) | 0.0806 | 35.5 | 121 | 0.32 | 1.44 | 0.48 | > 100 | 
2 | CN1c2ccc(OC(=O)NCCCCCCCCCCN3CCc4ccccc4C3)cc2CN2CCc3ccccc3C21 (centres undefined) |  | 5.7 | 5.68 | 0.25 |  |  | > 1000 | 
3 | CN1c2ccc(OC(=O)NCCCCCCCCN3CCOCC3)cc2CN2CCc3ccccc3C21 (centres undefined) | 0.0198 | 13.6 |  |  | 1.58 | 0.44 | > 1000 | 
4 | CN1c2ccc(OC(=O)NCCCCN3CCOCC3)cc2CN2CCc3ccccc3C21 (centres undefined) | 0.0506 | 16.3 |  |  | 0.48 | 1.44 | > 1000 | 
5 | CN1c2ccc(OC(=O)NCCCCCCN3CCOCC3)cc2CN2CCc3ccccc3C21 (centres undefined) | 0.0493 | 26.1 | 202 | 0.16 | 0.042 | 16.5 | > 1000 | Activity (HT-22 [8]): Non-Toxic; Activity (HT-22 [9]): Dose-dependent effect; Activity [10]: Non-Toxic; Activity (Mus musculus [11]): Active; Activity (Mus musculus [12]): Active; Activity (Mus musculus [13]): Active; Activity (Mus musculus [14]): Non-Toxic; Activity (Mus musculus [15]): Non-Toxic
6 | CN1c2ccc(OC(=O)NCCCCCCn3ccnc3)cc2CN2CCc3ccccc3C21 (centres undefined) | 0.0133 | 9.1 | 13.1 | 0.31 | 0.82 | 0.85 | > 1000 | 
7 | CN1c2ccc(OC(=O)NCCCCCCCCCCN3CCOCC3)cc2CN2CCc3ccccc3C21 (centres undefined) | 0.0115 | 17.8 |  |  |  |  | > 1000 | 
8 | CN1c2ccc(OC(=O)NCCCN3CCOCC3)cc2CN2CCc3ccccc3C21 (centres undefined) |  | 2.1 |  |  |  |  | > 100 | 
9 | CN1c2ccc(OC(=O)NCCN3CCOCC3)cc2CN2CCc3ccccc3C21 (centres undefined) |  | 4.1 |  |  |  |  | > 10 | 
10 | COCCN(CC1CCCN(Cc2ccccc2)C1)S(=O)(=O)c1ccc2ccccc2c1 (centres undefined) |  |  |  |  |  |  |  | IC50 (Acetylcholinesterase): > 10 µM
11 | CN1c2ccc(OC(=O)NCCCCCCCCN3CCc4ccccc4C3)cc2CN2CCc3ccccc3C21 (centres undefined) | 0.0326 | 6.2 |  |  | 0.83 | 0.84 | > 1000 | 
12 | CCCCCCCNC(=O)Oc1ccc2c(c1)CN(C)C(c1cccs1)N2C (centres undefined) |  |  |  |  |  |  |  | Activity [10]: Non-Toxic; Activity (Mus musculus [16]): Active; Activity (Mus musculus [12]): inactive; Activity (Mus musculus [17]): Active; Activity (Mus musculus [14]): Non-Toxic; Activity (Mus musculus [15]): Non-Toxic
13 | CCCCCCCNC(=O)Oc1ccc2c(c1)CN1CCc3ccccc3C1N2C (centres undefined) |  |  |  | 0.66 |  |  |  | Activity (HT-22 [8]): Non-Toxic; Activity (HT-22 [18]): Active; Activity [10]: Non-Toxic; Activity (Mus musculus [19]): Active; Activity (Mus musculus [12]): Active; Activity (Mus musculus [13]): Active; Activity (Mus musculus [14]): Non-Toxic; Activity (Mus musculus [15]): Non-Toxic
14 | CN1c2ccc(OC(=O)NCCCCCCN3CCCCC3)cc2CN2CCc3ccccc3C21 (centres undefined) | 0.0837 |  |  |  | 0.123 | 5.64 | 14 | 
15 | CN1c2ccc(OC(=O)NCCCN3CCc4ccccc4C3)cc2CN2CCc3ccccc3C21 (centres undefined) | 1.16 | 6.4 |  |  |  |  | > 10 | 
16 | CN1c2ccc(O)cc2CN2CCc3ccccc3C21 (centres undefined) |  |  |  |  |  |  |  | Activity [10]: Non-Toxic; Activity (Mus musculus [20]): inactive; Activity (Mus musculus [12]): Active; Activity (Mus musculus [13]): inactive; Activity (Mus musculus [14]): Non-Toxic; Activity (Mus musculus [15]): Non-Toxic
17 | CN1c2ccc(OC(=O)NCCCCCCN3CCN(C(=O)OC(C)(C)C)CC3)cc2CN2CCc3ccccc3C21 (centres undefined) | 0.123 | 70.6 | 1550 | 0.7 |  |  | > 10 | 
18 | CN1c2ccc(OC(=O)NCCCCCCn3cnc4ccccc43)cc2CN2CCc3ccccc3C21 (centres undefined) |  | 28.8 | 7.7 | 0.26 | 0.45 | 1.55 | > 1000 | 
19 | CN1c2ccc(OC(=O)NCCN3CCc4ccccc4C3)cc2CN2CCc3ccccc3C21 (centres undefined) | 1.72 | 3.9 | > 200000 | > 20 |  |  | > 10 | 
20 | CN1c2ccc(OC(=O)NCCCCN3CCc4ccccc4C3)cc2CN2CCc3ccccc3C21 (centres undefined) | 0.192 | 6 |  |  | 0.028 | 24.8 | > 100 | 
21 | CN1c2ccc(OC(=O)NCCCCCCN3CCCC3)cc2CN2CCc3ccccc3C21 (centres undefined) | 0.0343 |  |  |  | 0.98 | 0.71 | 26 | 
22 | CN1c2ccc(OC(=O)NCCCCCCN3CCc4ccccc4C3)cc2CN2CCc3ccccc3C21 (centres undefined) | 0.0267 | 0.4 | 3.6 | 0.18 | 0.025 | 27.7 | > 1000 | Activity (HT-22 [8]): Non-Toxic; Activity (HT-22 [9]): Dose-dependent effect; Activity [10]: Non-Toxic; Activity (Mus musculus [21]): Active; Activity (Mus musculus [12]): Active; Activity (Mus musculus [13]): Active; Activity (Mus musculus [14]): Non-Toxic; Activity (Mus musculus [15]): Non-Toxic
